Measured values from US5068247A, “2-aminopentanoic acid compounds and their use as immunosuppressants” (priority 1989, dated 1991).

Key:
[1] = system: allo-reactive cytotoxic T cell (EL4 target cells); assay: suppression of induction of allo-reactive cytotoxic T cell in mouse allogenic mixed lymphocyte culture (MLC), 51Cr release; assay type: cell-based
Protocol: The target cells used were leukemia cells EL4 from the syngenic (H-2^b) C57BL/6 mouse as used for preparation of the stimulator cells. By incubating 10^6 EL4 cells in the presence of 370 KBq of Na2^51 CrO4 at 37° C. for 1 hour, ^51 Cr was incorporated into the cytoplasm. The cells were washed, adjusted to the concentration of 10^4 cells/ml and used as the target cells.
For the assay of the cytotoxic activity, 100 μl of the effector cell suspension and 100 μl of the target cell suspension were added to a 96-well flat-bottomed microculture plate, and cultured at 37° C. for 4 hours. The amount of ^51 Cr released into the supernatant was determined and the cytotoxic activity was calculated by the following formula. [formula]
The activity of the cytotoxic T cell is expressed by LU (lytic unit) per 10^6 effector cells.

[2] = system: IL-3 production in mouse allogenic MLC; assay: suppression of IL-3 production in mouse allogenic MLC; assay type: cell-based
Protocol: Mouse allogenic MLC was carried out as follows:
After termination of culture, the supernatant was collected and used as the supernatant of mouse allogenic MLC.

[3] = system: allo-reactive cytotoxic T cells in spleen of EL4-immunized BALB/c mice; assay: suppression of allo-reactive cytotoxic T cells induced by immunization of mouse with allogenic cells; assay type: in vivo
Protocol: Male 5- to 7-week-old BALB/c mice (H-2^d) were immunized with leukemia cell EL4 derived from C57BL/6 mice (H-2^b) (10^7 cells/mouse, intraperitoneal administration), and the test substance was administered intraperitoneally 5 times at the doses of 0.001 to 3 mg/kg/day or orally at the doses of 0.3 to 10 mg/kg/day from the day of immunization. Nine to ten days after immunization, the spleen was resected from the mice to prepare a single cell suspension and the suspension was used as effector cell suspension. The ^51 Cr-release assay was carried out in the same way as in Experiment Example 3, using EL4 cells as the target cells to measure the cytotoxic activity.
The activity of allo-reactive cytotoxic T cell is indicated by lytic unit (LU) per spleen. One lytic unit (LU) is defined as the number of effector cells required to cause 25% lysis of 5×10^3 target cells. At the same time, the body weight of mouse and number of spleen cells were also determined.

[4] = 0.001 mg/kg/day ip × 5, Table 9C
[5] = 0.001 mg/kg/day po × 5, Table 9D
[6] = 0.003 mg/kg/day ip × 5, Table 9C
[7] = 0.003 mg/kg/day po × 5, Table 9D
[8] = 0.003 mg/kg/day po × 10, Table 9E
[9] = 0.01 mg/kg/day ip × 5, Table 9C
[10] = 0.01 mg/kg/day po × 5, Table 9D
[11] = 0.01 mg/kg/day po × 10, Table 9E

Structure (SMILES): CCCCCCCCCCCCC/C=C/C[C@@H](O)[C@H](O)[C@@](N)(CO)C(=O)O [Example 5]
- Cytotoxic activity ([1]; 0.00001 μg/ml, C3H/HeN responder): 9.8 LU/10^6
- Cytotoxic activity ([1]; 0.0001 μg/ml, BALB/c responder): 9.2 LU/10^6
- Cytotoxic activity ([1]; 0.0001 μg/ml, C3H/HeN responder): 8.0 LU/10^6
- Cytotoxic activity ([1]; 0.001 μg/ml, BALB/c responder): 3.7 LU/10^6
- Cytotoxic activity ([1]; 0.001 μg/ml, C3H/HeN responder): 6.8 LU/10^6
- Cytotoxic activity ([1]; 0.01 μg/ml, BALB/c responder): 1.6 LU/10^6
- Cytotoxic activity ([1]; 0.01 μg/ml, C3H/HeN responder): < 0.5 LU/10^6
- Cytotoxic activity ([1]; 0.1 μg/ml, BALB/c responder): < 0.5 LU/10^6
- Cytotoxic activity ([1]; 0.1 μg/ml, C3H/HeN responder): < 0.5 LU/10^6
- Cytotoxic activity ([1]; 1 μg/ml, BALB/c responder): < 0.5 LU/10^6
- Cytotoxic activity ([1]; 1 μg/ml, C3H/HeN responder): < 0.5 LU/10^6
- inhibition at 10 pg/mL ([1]; Mus musculus, T-cell, 144 h, 0.00001 μg/ml, C3H/HeN responder): 35.4%
- inhibition at 0.0001 µg/mL ([1]; Mus musculus, T-cell, 144 h, 0.0001 μg/ml, BALB/c responder): 34.1%
- inhibition at 0.0001 µg/mL ([1]; Mus musculus, T-cell, 144 h, 0.0001 μg/ml, C3H/HeN responder): 47.5%
- inhibition at 0.001 µg/mL ([1]; Mus musculus, T-cell, 144 h, 0.001 μg/ml, C3H/HeN responder): 54.2%
- inhibition at 0.01 µg/mL ([1]; Mus musculus, T-cell, 144 h, 0.01 μg/ml, C3H/HeN responder): > 95%
- inhibition at 0.1 µg/mL ([1]; Mus musculus, T-cell, 144 h, 0.1 μg/ml, C3H/HeN responder): > 95%
- inhibition at 1 µg/mL ([1]; Mus musculus, T-cell, 144 h, 1 μg/ml, C3H/HeN responder): > 95%
- inhibition at 0.001 µg/mL ([1]; Mus musculus, T-cell, 144 h, 0.001 μg/ml, BALB/c responder): 73.2%
- inhibition at 0.01 µg/mL ([1]; Mus musculus, T-cell, 144 h, 0.01 μg/ml, BALB/c responder): 88.4%
- inhibition at 0.1 µg/mL ([1]; Mus musculus, T-cell, 144 h, 0.1 μg/ml, BALB/c responder): > 95%
- inhibition at 1 µg/mL ([1]; Mus musculus, T-cell, 144 h, 1 μg/ml, BALB/c responder): > 95%
- induction of the allo-reactive cytotoxic T cell (in words), BALB/c responder ([1]; Table 3A): markedly inhibited
- induction of the allo-reactive cytotoxic T cell (in words), C3H/HeN responder ([1]; Table 3B): suppressed
- IL-3 activity ([2]; 0.0001 μg/ml): 32.7 U/ml
- IL-3 activity ([2]; 0.001 μg/ml): 19.2 U/ml
- IL-3 activity ([2]; 0.01 μg/ml): 11.5 U/ml
- IL-3 activity ([2]; 0.1 μg/ml): 7.9 U/ml
- IL-3 activity ([2]; 1 μg/ml): 7.9 U/ml
- inhibition at 0.0001 µg/mL ([2]; Mus musculus, 48 h, 0.0001 μg/ml): 42.1%
- inhibition at 0.001 µg/mL ([2]; Mus musculus, 48 h, 0.001 μg/ml): 76.5%
- inhibition at 0.01 µg/mL ([2]; Mus musculus, 48 h, 0.01 μg/ml): 96.2%
- inhibition at 0.1 µg/mL ([2]; Mus musculus, 48 h, 0.1 μg/ml): 100%
- inhibition at 1 µg/mL ([2]; Mus musculus, 48 h, 1 μg/ml): 100%
- Body weight 9 days after immunization [3, 4]: 23.6 ± 1.1 g
- Cytotoxic T cell activity [3, 4]: 589 ± 415 LU/spleen
- Cytotoxic T cell activity, suppression [3, 4]: 49.7%
- Number of spleen cells [3, 4]: 1.8 ± 0.2 × 10^8 cell
- Body weight 10 days after immunization [3, 5]: 24.5 ± 1.7 g
- Cytotoxic T cell activity [3, 5]: 1929 ± 630 LU/spleen
- Cytotoxic T cell activity, suppression [3, 5]: 0%
- Number of spleen cells [3, 5]: 1.5 ± 0.2 × 10^8
- Body weight 9 days after immunization [3, 6]: 22.8 ± 1.6 g
- Cytotoxic T cell activity [3, 6]: 473 ± 265 LU/spleen
- Cytotoxic T cell activity, suppression [3, 6]: 59.6%
- Number of spleen cells [3, 6]: 1.8 ± 0.2 × 10^8 cell
- Body weight 10 days after immunization [3, 7]: 24.6 ± 1.1 g
- Cytotoxic T cell activity [3, 7]: 1069 ± 400 LU/spleen
- Cytotoxic T cell activity, suppression [3, 7]: 30.2%
- Number of spleen cells [3, 7]: 1.6 ± 0.3 × 10^8
- Body weight 10 days after immunization [3, 8]: 25.0 ± 0.7 g
- Cytotoxic T cell activity [3, 8]: 1936 ± 840 LU/spleen
- Cytotoxic T cell activity, suppression [3, 8]: 30.5%
- Number of spleen cells [3, 8]: 1.3 ± 0.3 × 10^8
- Body weight 9 days after immunization [3, 9]: 24.4 ± 1.1 g
- Cytotoxic T cell activity [3, 9]: 443 ± 141 LU/spleen
- Cytotoxic T cell activity, suppression [3, 9]: 62.1%
- Number of spleen cells [3, 9]: 2.2 ± 0.3 × 10^8 cell
- Body weight 10 days after immunization [3, 10]: 25.8 ± 1.3 g
- Cytotoxic T cell activity [3, 10]: 709 ± 189 LU/spleen
- Cytotoxic T cell activity, suppression [3, 10]: 53.7%
- Number of spleen cells [3, 10]: 1.6 ± 0.3 × 10^8
- Body weight 10 days after immunization [3, 11]: 25.2 ± 1.3 g
- Cytotoxic T cell activity [3, 11]: 996 ± 279 LU/spleen
- Cytotoxic T cell activity, suppression [3, 11]: 64.2%
